Among the test systems are ACHN renal; SK-MEL-28 melanoma; NCI/ADR-RES ovarian; HOP-62 NSCLC; NCI-H460 lung; M14 melanoma; HT29 colon; T-47D breast; OVCAR-8 ovarian; SF-295 CNS; SR leukemia; COLO 205 colon; IGROV1 ovarian; BT-549 breast; UACC-257 melanoma; SF-268 CNS; SF-539 CNS; UACC-62 melanoma; EKVX NSCLC; MDA-MB-231 breast.
Holding throughout (assay): growth of human tumour cells (NCI), 48 h

Each structure is given as a SMILES string.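 Cells were grown in 96-well plates and exposed to each compound for 48 hours at five concentrations; endpoints were interpolated linearly between bracketing concentrations, or set to the highest concentration if not reached. TGI denotes the concentration required for complete inhibition of growth.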

As to `O=C(O)c1ccccc1/C=C1/Cc2ccc3c(c2C1=O)CCC3`, the TGI in the assay with ACHN renal, with SK-MEL-28 melanoma, in the assay with NCI/ADR-RES ovarian, with HOP-62 NSCLC, with NCI-H460 lung and in the assay with M14 melanoma was greater than 100 µM throughout. Moreover, the TGI is greater than 100 µM in the assay with HT29 colon; greater than 100 µM in the assay with T-47D breast; greater than 100 µM with OVCAR-8 ovarian; greater than 100 µM with SF-295 CNS; 91.3 µM in the assay with SR leukemia; 36.3 µM with COLO 205 colon. The TGI in the assay on IGROV1 ovarian is greater than 100 µM; in the assay on BT-549 breast it was 96.8 µM; in the assay on UACC-257 melanoma, greater than 100 µM; in the assay on SF-268 CNS it was greater than 100 µM; in the assay with SF-539 CNS, 43.6 µM; in the assay with UACC-62 melanoma, greater than 100 µM. The molecule also gave a TGI in the assay on EKVX NSCLC greater than 100 µM.
In the case of `COc1cc(NC(C)=O)ccc1C(=O)N/N=C/c1ccco1`, the TGI in the assay on ACHN renal, with SK-MEL-28 melanoma, with NCI/ADR-RES ovarian, in the assay on HOP-62 NSCLC, in the assay on M14 melanoma and in the assay with HT29 colon was greater than 100 µM each time. The TGI in the assay on T-47D breast, in the assay with OVCAR-8 ovarian, in the assay with SF-295 CNS, with SR leukemia, in the assay on COLO 205 colon and in the assay on IGROV1 ovarian was greater than 100 µM in each case. Further, the TGI in the assay with BT-549 breast, in the assay with SF-268 CNS, in the assay with SF-539 CNS, in the assay with UACC-62 melanoma and in the assay on EKVX NSCLC was greater than 100 µM in each case.
As to `CN(CCNC(=O)c1nn(-c2ccc(Cl)cc2Cl)c2c1Cc1ccccc1-2)CCNC(=O)c1nn(-c2ccc(Cl)cc2Cl)c2c1Cc1ccccc1-2`, the TGI is 29.7 µM in the assay with ACHN renal; 4.97 µM with SK-MEL-28 melanoma; 14.9 µM in the assay with NCI/ADR-RES ovarian; greater than 45.8 µM in the assay with HOP-62 NSCLC; 4.01 µM in the assay with NCI-H460 lung; 3.46 µM with M14 melanoma. Moreover, the TGI is 5.55 µM in the assay on HT29 colon; greater than 30.2 µM in the assay with T-47D breast; 8.88 µM in the assay on MDA-MB-231 breast; 4.44 µM in the assay on OVCAR-8 ovarian; 5.19 µM in the assay on SF-295 CNS; 3.43 µM in the assay with COLO 205 colon. Moreover, the TGI was greater than 100 µM in the assay with IGROV1 ovarian; 38.2 µM in the assay with BT-549 breast; 4.72 µM with UACC-257 melanoma; greater than 100 µM with SF-268 CNS; 3.68 µM with SF-539 CNS; 3.48 µM in the assay with UACC-62 melanoma. This molecule also yielded a TGI with EKVX NSCLC greater than 100 µM.
As to `CC(ON1[C@](C)(c2ccccc2)CC[C@@]1(C)c1ccccc1)c1ccccc1` (stereo partly drawn), the TGI in the assay with SK-MEL-28 melanoma, in the assay with NCI/ADR-RES ovarian, in the assay with HOP-62 NSCLC, in the assay with NCI-H460 lung, in the assay on M14 melanoma and in the assay on HT29 colon was greater than 100 µM throughout. Further, the TGI with T-47D breast was 87.3 µM; in the assay with MDA-MB-231 breast, greater than 100 µM; with OVCAR-8 ovarian, greater than 100 µM; in the assay on SF-295 CNS, greater than 100 µM; in the assay with COLO 205 colon it was greater than 100 µM; with IGROV1 ovarian, greater than 100 µM. The TGI is 42.2 µM with BT-549 breast; greater than 100 µM in the assay on UACC-257 melanoma; greater than 100 µM in the assay on SF-268 CNS; greater than 100 µM in the assay with SF-539 CNS; 77.9 µM in the assay on EKVX NSCLC.
On to `Cc1cn(C2CC(N=[N+]=[N-])C(CO)O2)c(=O)n(CCCCBr)c1=O` (stereo not drawn), for which the TGI in the assay with ACHN renal, in the assay with SK-MEL-28 melanoma, in the assay on NCI/ADR-RES ovarian, with HOP-62 NSCLC, with NCI-H460 lung and with M14 melanoma was greater than 100 µM in each case. Further, the TGI with HT29 colon, in the assay with T-47D breast, with MDA-MB-231 breast, with OVCAR-8 ovarian, with SF-295 CNS and with COLO 205 colon was greater than 100 µM throughout. In addition, the TGI in the assay on IGROV1 ovarian, in the assay on BT-549 breast, in the assay on UACC-257 melanoma, in the assay on SF-268 CNS, with SF-539 CNS and in the assay with UACC-62 melanoma was greater than 100 µM throughout. In the assay on EKVX NSCLC, this molecule came in with a TGI greater than 100 µM.
As for `Cc1c(C(=O)Nc2ccccc2)nnn1-c1ccnc2cc(C(F)(F)F)ccc12`, the TGI in the assay on ACHN renal, in the assay on SK-MEL-28 melanoma, in the assay on NCI/ADR-RES ovarian, in the assay on NCI-H460 lung, in the assay on M14 melanoma and with HT29 colon was greater than 100 µM in each case. In addition, the TGI in the assay on T-47D breast, with MDA-MB-231 breast, in the assay on OVCAR-8 ovarian, in the assay with SF-295 CNS, in the assay on COLO 205 colon and in the assay with IGROV1 ovarian was greater than 100 µM throughout. Moreover, the TGI in the assay on BT-549 breast, in the assay with UACC-257 melanoma, in the assay with SF-268 CNS, in the assay on SF-539 CNS, in the assay on UACC-62 melanoma and in the assay with EKVX NSCLC was greater than 100 µM throughout.
As for `CCCCc1nc(C)oc1C(C)C`, the TGI with ACHN renal, in the assay with SK-MEL-28 melanoma, in the assay with NCI/ADR-RES ovarian, in the assay on HOP-62 NSCLC, with NCI-H460 lung and with M14 melanoma was greater than 100 µM throughout. For the same molecule, the TGI with HT29 colon, in the assay on T-47D breast, with MDA-MB-231 breast, in the assay with OVCAR-8 ovarian, in the assay with SF-295 CNS and in the assay on COLO 205 colon was greater than 100 µM in each case. Further, the TGI with IGROV1 ovarian, with BT-549 breast, in the assay with UACC-257 melanoma, with SF-268 CNS, with SF-539 CNS and in the assay on UACC-62 melanoma was greater than 100 µM each time. For the same molecule, the TGI in the assay on EKVX NSCLC is greater than 100 µM.

Source of the values: PubChem BioAssay (NCI).
